Test system: peach aphid (Myzus persicae)
Assay: Insecticidal test against peach aphid, infested Chinese cabbage leaves sprayed
Format: in vivo
Details: peach aphid (Myzus persicae) on Chinese cabbage leaves, sprayed with 500 ppm composition unless otherwise stated, mortality assessed after 3 days
In short: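 Aphid-infested Chinese cabbage leaves were sprayed with compound at 500 ppm unless otherwise stated, formulated in acetone/ethanol diluted with water containing 0.05% Synperonic NP8. Mortality was assessed after 3 days.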

SMILES	Score (grading of mortality)
N#CC1(c2cncc(Cl)c2)CC2CCC(C1)N2Cc1ccc(F)c(F)c1 (stereo not shown) [Compound 249]	A (A indicates 80-100% mortality)
N#CC1(c2cncc(Cl)c2)CC2CCC(C1)N2Cc1ccccc1F (stereo not shown) [Compound 250]	A (A indicates 80-100% mortality)
N#CC1(c2cncc(Cl)c2)CC2CCC(C1)N2Cc1cc(F)cc(Br)c1 (stereo not shown) [Compound 251]	A (A indicates 80-100% mortality)
N#CC1(c2cncc(Cl)c2)CC2CCC(C1)N2Cc1ccc(F)cc1F (stereo not shown) [Compound 252]	A (A indicates 80-100% mortality)
N#CC1(c2cncc(Cl)c2)CC2CCC(C1)N2Cc1cccc(F)c1 (stereo not shown) [Compound 253]	A (A indicates 80-100% mortality)
N#CC1(c2cncc(Cl)c2)CC2CCC(C1)N2Cc1ccc(F)cc1 (stereo not shown) [Compound 254]	A (A indicates 80-100% mortality)
N#CC1(c2cncc(Cl)c2)CC2CCC(C1)N2Cc1cccc(C(F)(F)F)c1 (stereo not shown) [Compound 255]	A (A indicates 80-100% mortality)
N#CC1(c2cncc(Cl)c2)CC2CCC(C1)N2Cc1ccc(C(F)(F)F)cc1 (stereo not shown) [Compound 256]	A (A indicates 80-100% mortality)
N#CC1(c2cncc(Cl)c2)CC2CCC(C1)N2Cc1cccc(Cl)c1F (stereo not shown) [Compound 257]	A (A indicates 80-100% mortality)
N#CC1(c2cncc(Cl)c2)CC2CCC(C1)N2Cc1c(F)ccc(F)c1Cl (stereo not shown) [Compound 258]	A (A indicates 80-100% mortality)
N#CC1(c2cncc(Cl)c2)CC2CCC(C1)N2Cc1ccccc1Cl (stereo not shown) [Compound 259]	A (A indicates 80-100% mortality)
N#CC1(c2cncc(Cl)c2)CC2CCC(C1)N2Cc1c(Cl)cccc1Cl (stereo not shown) [Compound 260]	A (A indicates 80-100% mortality)
N#CC1(c2cncc(Cl)c2)CC2CCC(C1)N2Cc1cccc(Cl)c1 (stereo not shown) [Compound 261]	A (A indicates 80-100% mortality)
N#CC1(c2cncc(Cl)c2)CC2CCC(C1)N2Cc1ccc(F)cc1I (stereo not shown) [Compound 262]	A (A indicates 80-100% mortality)
Cc1cccc(CN2C3CCC2CC(C#N)(c2cncc(Cl)c2)C3)c1F (stereo not shown) [Compound 263]	A (A indicates 80-100% mortality)
N#CC1(c2cncc(Cl)c2)CC2CCC(C1)N2Cc1ccccc1N1C(=O)CCC1=O (stereo not shown) [Compound 264]	A (A indicates 80-100% mortality)
N#CC1(c2cncc(Cl)c2)CC2CCC(C1)N2Cc1cc(C(F)(F)F)ccc1F (stereo not shown) [Compound 265]	A (A indicates 80-100% mortality)
N#CC1(c2cncc(Cl)c2)CC2CCC(C1)N2Cc1ccccc1-c1ccccc1 (stereo not shown) [Compound 266]	A (A indicates 80-100% mortality)
N#Cc1ccccc1CN1C2CCC1CC(C#N)(c1cncc(Cl)c1)C2 (stereo not shown) [Compound 267]	A (A indicates 80-100% mortality)
N#CC1(c2cncc(Cl)c2)CC2CCC(C1)N2Cc1cccc(Oc2ccc(F)cc2)c1 (stereo not shown) [Compound 269]	A (A indicates 80-100% mortality)
N#Cc1ccc(CN2C3CCC2CC(C#N)(c2cncc(Cl)c2)C3)cc1 (stereo not shown) [Compound 270]	A (A indicates 80-100% mortality)
N#CC1(c2cncc(Cl)c2)CC2CCC(C1)N2Cc1ccc(F)c(F)c1F (stereo not shown) [Compound 271]	A (A indicates 80-100% mortality)

SMILES	Score (grading of mortality)
N#CC1(c2cncc(Cl)c2)CC2CCC(C1)N2Cc1ccccc1[N+](=O)[O-] (stereo not shown) [Compound 272]	A (A indicates 80-100% mortality)
N#CC1(c2cncc(Cl)c2)CC2CCC(C1)N2Cc1c(F)cccc1[N+](=O)[O-] (stereo not shown) [Compound 273]	A (A indicates 80-100% mortality)
N#CC1(c2cncc(Cl)c2)CC2CCC(C1)N2Cc1cccc([N+](=O)[O-])c1 (stereo not shown) [Compound 274]	A (A indicates 80-100% mortality)
N#CC1(c2cncc(Cl)c2)CC2CCC(C1)N2Cc1ccc([N+](=O)[O-])cc1 (stereo not shown) [Compound 275]	A (A indicates 80-100% mortality)
CC(C)CN1C2CCC1CC(C#N)(c1cncc(Cl)c1)C2 (stereo not shown) [Compound 276]	A (A indicates 80-100% mortality)
CCCCCCCCCCN1C2CCC1CC(C#N)(c1cncc(Cl)c1)C2 (stereo not shown) [Compound 277]	A (A indicates 80-100% mortality)
N#CC1(c2cncc(Cl)c2)CC2CCC(C1)N2CCOc1ccccc1 (stereo not shown) [Compound 278]	A (A indicates 80-100% mortality)
CCOCCN1C2CCC1CC(C#N)(c1cncc(Cl)c1)C2 (stereo not shown) [Compound 279]	A (A indicates 80-100% mortality)
CC(C)CCN1C2CCC1CC(C#N)(c1cncc(Cl)c1)C2 (stereo not shown) [Compound 280]	A (A indicates 80-100% mortality)
COC(=O)CCCN1C2CCC1CC(C#N)(c1cncc(Cl)c1)C2 (stereo not shown) [Compound 281]	A (A indicates 80-100% mortality)
N#CC1(c2cncc(Cl)c2)CC2CCC(C1)N2CCCc1ccccc1 (stereo not shown) [Compound 282]	A (A indicates 80-100% mortality)
N#CC1(c2cncc(Cl)c2)CC2CCC(C1)N2CC1CCCCC1 (stereo not shown) [Compound 283]	A (A indicates 80-100% mortality)
N#CCCN1C2CCC1CC(C#N)(c1cncc(Cl)c1)C2 (stereo not drawn) [Compound 284, exo-3-(5-chloropyrid-3-yl)-endo-3-cyano-8-(2-cyanoethyl)-8-azabicyclo[3.2.1]octane]	A (A indicates 80-100% mortality)
N#CCCCN1C2CCC1CC(C#N)(c1cncc(Cl)c1)C2 (stereo not shown) [Compound 285]	A (A indicates 80-100% mortality)
CC(O)CN1C2CCC1CC(C#N)(c1cncc(Cl)c1)C2 (stereo not shown) [Compound 286]	A (A indicates 80-100% mortality)
C=CC(=O)OCCN1C2CCC1CC(C#N)(c1cncc(Cl)c1)C2 (stereo not shown) [Compound 287]	A (A indicates 80-100% mortality)
COCCN1C2CCC1CC(C#N)(c1cncc(Cl)c1)C2 (stereo not shown) [Compound 288]	A (A indicates 80-100% mortality)
N#CC1(c2cncc(Cl)c2)CC2CCC(C1)N2CC1CCCCO1 (stereo not shown) [Compound 289]	A (A indicates 80-100% mortality)
CC(CO)CN1C2CCC1CC(C#N)(c1cncc(Cl)c1)C2 (stereo not shown) [Compound 290]	A (A indicates 80-100% mortality)
N#CC1(c2cncc(Cl)c2)CC2CCC(C1)N2CP(=O)(O)O (stereo not drawn) [Compound 292, exo-3-(5-chloropyrid-3-yl)-endo-3-cyano-8-phosphonomethyl-8-azabicyclo[3.2.1]octane]	A (A indicates 80-100% mortality)
C[N+]1([O-])C2CCC1CC(C#N)(c1cncc(Cl)c1)C2 (stereo not shown) [Compound 293]	A (A indicates 80-100% mortality)

Reference: patent US6573275B1, “Bicyclic amines” (Syngenta Limited, priority 1995, dated 2003)
